# Key:
# [1] = system: simple and complex partial seizures and secondarily generalized seizures; conditions: clinical trials of human epilepsy; cited from earlier work
# subjects with migraine [2] = assay: Clinical Study Trials #1 and #2: severity of migraine headaches, topiramate with triptan rescue therapy; type: in vivo, human; conditions: for Severity of Migraine Headaches, Baseline / Severity of Migraine Headaches, Double-Blind: triptan rescue therapy; for Severity of Migraine Headaches, Double-Blind: Double-Blind Phase; for Severity of Migraine Headaches, Difference: Double-Blind minus Baseline
# Protocol: (§1) The primary objective of these studies was to evaluate the safety and efficacy of three doses of topiramate (50, 100, and 200 mg/day) versus placebo in the prophylaxis of migraine based on the change in the monthly (28 day) migraine period rate from the Prospective Baselin,e Period to the Double-Blind Phase. The secondary objectives for the studies were to assess dose response relationship, and to evaluate the effect of prophylactic treatment with topiramate (50, 100, and 200 mg/day) versus placebo on Health-Related Quality of Life (HRQL).
# (§2) The studies were randomized, double-blind, placebo-controlled, parallel-group, multicenter studies. Male and female subjects were randomized equally to the four treatment groups.
# (§3) While the IHS criteria was used to establish the diagnosis at study entry, the evaluation of efficacy was based on migraine periods. A migraine period was defined as the length of time between the onset and cessation of painful migraine symptoms. This period could last up to, but no longer than, 24 hours. If the painful symptoms persisted more than 24 hours after their initial onset, this was considered to be a new, distinct migraine period. If symptoms recurred within 24 hours of the initial onset, this was considered part of the same, initial period.
# (§4) Subjects who completed the Baseline Phase and met the entry criteria were randomized to one of four treatment groups: 50 mg/day topiramate, 100 mg/day topiramate, 200 mg/day topiramate or placebo. The Double-Blind Phase had two periods: Titration and Maintenance, which are described in more detail below.
# (§5) The Titration Period immediately followed the Baseline Phase and extended for eight weeks (56 days). During this period, subjects randomized to topiramate were started at a dose of 25 mg/day and the daily dose was increased by 25 mg weekly until they reach their assigned dose (or maximum tolerated dose, whichever is less). From the third week of Titration until the end of the Maintenance Period, a maximum of two dose level reductions were permitted for unacceptable tolerability problems. If the subject was still in the Titration Period after a dose reduction, rechallenge may have occurred in an attempt to achieve the subject's assigned dose, and, if unsuccessful, the dose may have been reduced again to the original reduced dose. Subjects who had their study medication dose decreased twice, and were still experiencing unacceptable tolerability problems that warranted additional dose reductions, exited the study. Clinic visits occurred on Day 29 (Visit 3) and Day 57 (Visit 4/End of Titration).
# (§6) During this 18-week period, the subjects remained on the dose of study medication reached at the end of the Titration Period (the assigned dose or the maximum tolerated dose). If the subject experienced unacceptable tolerability problems, the dose was reduced, only one dose reduction was permitted in the maintenance. No rechallenge was permitted during the Maintenance Period, so that subject continued on the reduced dose for the remainder of the period. Subjects who already had their study medication dose decreased by two levels, and were still experiencing unacceptable tolerability problems that warranted additional dose reductions exited the study. Clinic visits occurred on Day 85 (Visit 5), Day 113 (Visit 6), Day 141 (Visit 7) and Day 183 (Visit 8/ Double-Blind Final Visit or Early Withdrawal).
# (§7) Subjects were randomized to one of four treatment groups: a) placebo, b) 50 mg/day topiramate, c) 100 mg/day topiramate, or d) 200 mg/day topiramate. All subjects received study medication in a b.i.d. dosing regimen except during the first week of Titration, during which they took single evening doses.
# (§8) In keeping with good pain management practices, subjects enrolled in these studies were permitted to take acute abortive/rescue medication as indicated for the treatment of pain during migraine/headache attacks. […]
# subjects with migraine [3] = assay: Clinical Study Trials #1 and #2: severity of photophobia associated with migraine headaches; type: in vivo, human; conditions: for Severity of Photophobia Associated Migraine Headaches, Baseline / Severity of Photophobia Associated Migraine Headaches, Double-Blind / Severity of Photophobia Associated Migraine Headaches, Difference: scale 0 to 3; for Severity of Photophobia Associated Migraine Headaches, Baseline / Severity of Photophobia Associated Migraine Headaches, Double-Blind: triptan rescue therapy; for Severity of Photophobia Associated Migraine Headaches, Double-Blind: Double-Blind Phase; for Severity of Photophobia Associated Migraine Headaches, Difference: Double-Blind minus Baseline
# Protocol: as §1, §2, §3, §4, §5, §6, §7, §8
# [4] = system: severe refractory migraine with and without aura; assay: Case Study 3: severe refractory migraine with and without aura; type: in vivo, human
# Protocol: The patient was a person with a twenty-year history of severe refractory migraine with and without aura. […] The patient was started on topiramate at 50 mg/day increasing to 100 mg in the morning and 100 mg in the evening, in combination with INDERAL at 160 mg/day. […] After about 6 months, the patient was prescribed EFFEXOR XR (vanlafaxine HCl) at 37 mg/day, an increased topiramate dose of 125 mg in the morning and 150 mg in the evening, and 160 mg/day INDERAL.
# subjects with migraine [5] = assay: Clinical Study Trials #1 and #2: severity of nausea associated with migraine headaches; type: in vivo, human; conditions: for Severity of Nausea Associated Migraine Headaches, Baseline / Severity of Nausea Associated Migraine Headaches, Double-Blind / Severity of Nausea Associated Migraine Headaches, Difference: scale 0 to 3; for Severity of Nausea Associated Migraine Headaches, Baseline / Severity of Nausea Associated Migraine Headaches, Double-Blind: triptan rescue therapy; for Severity of Nausea Associated Migraine Headaches, Double-Blind: Double-Blind Phase; for Severity of Nausea Associated Migraine Headaches, Difference: Double-Blind minus Baseline
# Protocol: as §1, §2, §3, §4, §5, §6, §7, §8
# subjects with migraine [6] = assay: Clinical Study Trials #1 and #2: severity of phonophobia associated with migraine headaches; type: in vivo, human; conditions: for Severity of Phonophobia Associated With Migraine Headaches, Baseline / Severity of Phonophobia Associated With Migraine Headaches, Double-Blind / Severity of Phonophobia Associated With Migraine Headaches, Difference: scale 0 to 3; for Severity of Phonophobia Associated With Migraine Headaches, Baseline / Severity of Phonophobia Associated With Migraine Headaches, Double-Blind: triptan rescue therapy; for Severity of Phonophobia Associated With Migraine Headaches, Double-Blind: Double-Blind Phase; for Severity of Phonophobia Associated With Migraine Headaches, Difference: Double-Blind minus Baseline
# Protocol: as §1, §2, §3, §4, §5, §6, §7, §8
# subjects with migraine [7] = assay: Clinical Study Trials #1 and #2: duration of migraine headaches, topiramate with triptan rescue therapy; type: in vivo, human; conditions: for Duration of Migraine Headaches, Baseline / Duration of Migraine Headaches, Double-Blind: triptan rescue therapy; for Duration of Migraine Headaches, Double-Blind: Double-Blind Phase; for Duration of Migraine Headaches, Difference: Double-Blind minus Baseline
# Protocol: as §1, §2, §3, §4, §5, §6, §7, §8
# kindled epilepsy = conditions: animal model of kindled epilepsy; cited from earlier work
# [8] = patients taking 100 mg topiramate in Study 1
# [9] = topiramate with triptan rescue medication vs triptan rescue alone, measurable at 50 mg and 100 mg
smiles,measurement,setting,value
"CC1(C)O[C@@H]2[C@@H](CO[C@@]3(COS(N)(=O)=O)OC(C)(C)O[C@@H]23)O1 [topiramate, 2,3:4,5-bis-O-(1-methylethylidene)-β-D-fructopyranose sulfamate]",Efficacy in treating simple and complex partial seizures and secondarily generalized seizures,[1],effective as adjunctive therapy or as monotherapy
same,"Severity of Migraine Headaches, Baseline","subjects with migraine [2]; TPM 50 mg, scale 0 to 3 (0=none, 3=severe)",2.32
same,"Severity of Migraine Headaches, Double-Blind","subjects with migraine [2]; TPM 50 mg, scale 0 to 3",2.18
same,"Severity of Migraine Headaches, Difference","subjects with migraine [2]; TPM 50 mg, scale 0 to 3",−0.13
same,"Severity of Migraine Headaches, Baseline","subjects with migraine [2]; TPM 100 mg, scale 0 to 3",2.33
same,"Severity of Migraine Headaches, Double-Blind","subjects with migraine [2]; TPM 100 mg, scale 0 to 3",2.14
same,"Severity of Migraine Headaches, Difference","subjects with migraine [2]; TPM 100 mg, scale 0 to 3",−0.19
same,"Severity of Migraine Headaches, Baseline","subjects with migraine [2]; TPM 200 mg, scale 0 to 3",2.26
same,"Severity of Migraine Headaches, Double-Blind","subjects with migraine [2]; TPM 200 mg, scale 0 to 3",2.16
same,"Severity of Migraine Headaches, Difference","subjects with migraine [2]; TPM 200 mg, scale 0 to 3",−0.10
same,Statistical significance of effect on severity of migraine headaches (in words),subjects with migraine [2]; patient group taking 100 mg topiramate,Statistically significant results
same,Effect on severity of migraine headaches (in words),"subjects with migraine [2]; topiramate in combination with triptan rescue medication vs rescue medications alone, 50, 100 and 200 mg",decrease in the severity of migraine headaches
same,"Severity of Photophobia Associated Migraine Headaches, Baseline",subjects with migraine [3]; TPM 50 mg,1.83
same,"Severity of Photophobia Associated Migraine Headaches, Double-Blind",subjects with migraine [3]; TPM 50 mg,1.68
same,"Severity of Photophobia Associated Migraine Headaches, Difference",subjects with migraine [3]; TPM 50 mg,−0.14
same,"Severity of Photophobia Associated Migraine Headaches, Baseline",subjects with migraine [3]; TPM 100 mg,1.77
same,"Severity of Photophobia Associated Migraine Headaches, Double-Blind",subjects with migraine [3]; TPM 100 mg,1.58
same,"Severity of Photophobia Associated Migraine Headaches, Difference",subjects with migraine [3]; TPM 100 mg,−0.19
same,"Severity of Photophobia Associated Migraine Headaches, Baseline",subjects with migraine [3]; TPM 200 mg,1.62
same,"Severity of Photophobia Associated Migraine Headaches, Double-Blind",subjects with migraine [3]; TPM 200 mg,1.57
same,"Severity of Photophobia Associated Migraine Headaches, Difference",subjects with migraine [3]; TPM 200 mg,−0.05
same,"Statistical significance of effect, text under Table 4 (in words)",subjects with migraine [3]; [8],Statistically significant differences in the severity of nausea
same,Effect on severity of associated photophobia (in words),subjects with migraine [3]; [9],decreased the severity of associated photophobia
same,Response of severe refractory migraine,[4]; topiramate 100 mg in the morning and 100 mg in the evening with INDERAL at 160 mg/day,"initial positive response, but the headaches broke through"
same,Response of severe refractory migraine,"[4]; topiramate 125 mg morning and 150 mg evening, EFFEXOR XR 37 mg/day, INDERAL 160 mg/day",Modest but sustained improvement
same,"Severity of Nausea Associated Migraine Headaches, Baseline",subjects with migraine [5]; TPM 50 mg,1.17
same,"Severity of Nausea Associated Migraine Headaches, Double-Blind",subjects with migraine [5]; TPM 50 mg,1.17
same,"Severity of Nausea Associated Migraine Headaches, Difference",subjects with migraine [5]; TPM 50 mg,−0.01
same,"Severity of Nausea Associated Migraine Headaches, Baseline",subjects with migraine [5]; TPM 100 mg,1.22
same,"Severity of Nausea Associated Migraine Headaches, Double-Blind",subjects with migraine [5]; TPM 100 mg,1.12
same,"Severity of Nausea Associated Migraine Headaches, Difference",subjects with migraine [5]; TPM 100 mg,−0.10
same,"Severity of Nausea Associated Migraine Headaches, Baseline",subjects with migraine [5]; TPM 200 mg,1.12
same,"Severity of Nausea Associated Migraine Headaches, Double-Blind",subjects with migraine [5]; TPM 200 mg,1.09
same,"Severity of Nausea Associated Migraine Headaches, Difference",subjects with migraine [5]; TPM 200 mg,−0.03
same,Statistical significance of effect on severity of nausea (in words),subjects with migraine [5]; patients taking 100 mg topiramate,Statistically significant differences in the severity of nausea
same,Effect on severity of nausea associated with migraine headaches (in words),"subjects with migraine [5]; topiramate with triptan class rescue medications, measurable at 100 mg and 200 mg",decrease in the severity of nausea
same,"Severity of Phonophobia Associated With Migraine Headaches, Baseline",subjects with migraine [6]; TPM 50 mg,1.65
same,"Severity of Phonophobia Associated With Migraine Headaches, Double-Blind",subjects with migraine [6]; TPM 50 mg,1.59
same,"Severity of Phonophobia Associated With Migraine Headaches, Difference",subjects with migraine [6]; TPM 50 mg,−0.06
same,"Severity of Phonophobia Associated With Migraine Headaches, Baseline",subjects with migraine [6]; TPM 100 mg,1.72
same,"Severity of Phonophobia Associated With Migraine Headaches, Double-Blind",subjects with migraine [6]; TPM 100 mg,1.58
same,"Severity of Phonophobia Associated With Migraine Headaches, Difference",subjects with migraine [6]; TPM 100 mg,−0.15
same,"Severity of Phonophobia Associated With Migraine Headaches, Baseline",subjects with migraine [6]; TPM 200 mg,1.50
same,"Severity of Phonophobia Associated With Migraine Headaches, Double-Blind",subjects with migraine [6]; TPM 200 mg,1.47
same,"Severity of Phonophobia Associated With Migraine Headaches, Difference",subjects with migraine [6]; TPM 200 mg,−0.03
same,"Statistical significance of effect, text under Table 5 (in words)",subjects with migraine [6]; [8],Statistically significant differences in the severity of nausea
same,Effect on severity of associated phonophobia (in words),subjects with migraine [6]; [9],decreased the severity of associated phonophobia
same,Effect on duration of headaches (in words),subjects with migraine [7]; 200 mg topiramate treatment,duration of headaches increased
same,"Duration of Migraine Headaches, Baseline",subjects with migraine [7]; TPM 50 mg,12.77 h
same,"Duration of Migraine Headaches, Double-Blind",subjects with migraine [7]; TPM 50 mg,11.60 h
same,"Duration of Migraine Headaches, Difference",subjects with migraine [7]; TPM 50 mg,-1.17 h
same,"Duration of Migraine Headaches, Baseline",subjects with migraine [7]; TPM 100 mg,14.75 h
same,"Duration of Migraine Headaches, Double-Blind",subjects with migraine [7]; TPM 100 mg,13.17 h
same,"Duration of Migraine Headaches, Difference",subjects with migraine [7]; TPM 100 mg,-1.59 h
same,"Duration of Migraine Headaches, Baseline",subjects with migraine [7]; TPM 200 mg,10.84 h
same,"Duration of Migraine Headaches, Double-Blind",subjects with migraine [7]; TPM 200 mg,12.05 h
same,"Duration of Migraine Headaches, Difference",subjects with migraine [7]; TPM 200 mg,+1.21 hours
same,Effect on duration of a migraine headache (in words),"subjects with migraine [7]; topiramate with triptan rescue medications, groups taking 50 mg and 100 mg",numerically measurable decrease in the duration of a migraine headache
same,Block of seizures,kindled epilepsy,effectively block seizures

# Reference: patent US20030225002A1, “Co-therapy for the treatment of migraine comprising anticonvulsant derivatives and anti-migraine agents” (priority 2002, published 2003)
